Assay results from patent US8343966B2, “Organic compounds” (Novartis AG, priority 2008, dated 2013).

Molecular target: T1, human ALK5 (ALK5 T204D kinase domain) (Homo sapiens, UniProt P36897, T204D)
T1 construct: The kinase domain of human ALK5 (amino acids 200-503); made in house; host or cells: insect cells (baculovirus)
T1 sequence (P36897 200-503 T204D): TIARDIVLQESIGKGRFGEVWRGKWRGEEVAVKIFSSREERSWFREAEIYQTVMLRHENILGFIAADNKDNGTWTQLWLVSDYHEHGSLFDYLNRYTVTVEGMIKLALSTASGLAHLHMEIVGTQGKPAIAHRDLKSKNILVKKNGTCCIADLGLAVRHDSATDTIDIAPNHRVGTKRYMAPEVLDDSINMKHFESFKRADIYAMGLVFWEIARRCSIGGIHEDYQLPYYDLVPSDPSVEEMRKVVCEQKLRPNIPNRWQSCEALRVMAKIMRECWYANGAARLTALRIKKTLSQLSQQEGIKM
Experiment: ALK5 kinase assay, [33P] phosphate incorporation into casein
Format: biochemical
Settings: casein substrate, 1 μM unlabelled ATP
Description: The kinase activity of ALK5 is assessed by measuring radiolabelled phosphate [33P] incorporation in to the generic substrate, casein. The kinase domain of human ALK5 (amino acids 200-503) is fused to an N-terminal histidine tag. The kinase activity of ALK5 is rendered constitutive via point mutation at amino acid 204 (threonine to aspartate modification, ALK5 T204D) and the kinase construct is engineered to be expressed from a baculovirus expression construct in insect cells. The purified, recombinantly-expressed histidine-tagged ALK5 T204D protein is dissolved at 5.4 mg/ml in 50 mM Tris-HCl pH 8.0, 150 mM NaCl, 5 mM DTT. ALK5 T204D is dissolved to 2.5 μg/ml in assay buffer (Assay buffer: 20 mM Tris-HCl pH 7.4, 10 mM MgCl2, 2 mM MnCl2) on the day of use.
Test compounds and reference compounds are dissolved in assay buffer without DTT containing 5% (v/v) DMSO. Stock solutions of test and reference compounds are diluted in assay buffer with DTT (1.25 mM) containing 4.5% (v/v) DMSO. 10 μl of test or reference compound are added to the appropriate wells of 96 well U-bottomed plate. Total enzyme activity is determined by measuring ALK5 T204D activity in the absence of ALK5 kinase inhibitor reference compounds. Non-specific binding (NSB) is determined by measuring the activity of ALK5 T204D in the presence of ALK5 kinase inhibitor reference compounds. 10 μl of dephosphorylated casein stock solution (dephosphorylated casein is dissolved in ddH2O at 20 mg/ml) is added per well (200 μg/well final assay concentration). 20 μl of ALK5 T204D (2.5 μg/ml solution) is added per well (50 ng/well final assay concentration). The plates are left to incubate at room temperature for 10 minutes.
10 μl of ATP mix is added to the well to initiate the reaction (0.66 nM [^33P]ATP/1 μM unlabelled ATP/well final assay concentration). The ATP mix is prepared as follows, unlabelled ATP (3 mM) is dissolved in ddH2O and pH adjusted to 7.4. The stock concentration of [^33P]ATP is 10 μCi/μl. The appropriate volume of [^33P]ATP is added to unlabelled ATP solution such that the final assay concentration per well is 0.1 μCi. Following addition of the ATP mix, the plates are incubated at room temperature for 50 minutes. The kinase reaction is terminated by the addition of 50 μL Stop Buffer (20 mM Tris-HCl pH 7.4, 10 mM EDTA).
75 μl/well from the reaction plate is transferred to a Multiscreen-IP plate (MultiScreen-IP plates are prepared by added 50 μL of 70% (v/v) ethanol per well and incubated for 5 minutes at room temperature. The ethanol is removed by aspiration via a MultiScreen HTS Vacuum Manifold unit (Millipore, Cat no: MSVMHT500). The plates are washed twice by adding 200 μl/well ddH2O). The MultiScreen-IP plate is incubated at room temperature for 30 minutes to allowing binding of casein to the plate. The MultiScreen-IP plates are washed three times by adding 200 μl/well 100 mM phosphoric acid solution and the gasket is carefully removed from the back of the MultiScreen-IP plate and the plate dried in the oven for 30 minutes. The MultiScreen-IP plate is backsealed, 50 μL of Microscint™20 is added, then the plates are topsealed and radiolabelled casein detected and quantified on a TopCount™ plate-reader using the ^33P scintillation protocol.

IC50 [nM] | SMILES
19 | c1cncc(-c2cc(NCc3cccc4[nH]ccc34)nc(-c3ccco3)c2)c1 [Example 1.2, (6′-Furan-2-yl-[3,4′]bipyridinyl-2′-yl)-(1H-indol-4-ylmethyl)-amine]
36 | CC(C)(O)c1cc(-c2cncc(-c3ccc(CN4CCN(C(C)(C)C)CC4)cc3)c2)cc(-c2ccccn2)n1 [Example 2.82, 2-{5″-[4-(4-tert-Butyl-piperazin-1-ylmethyl)-phenyl]-[2,2′;4′,3″]terpyridin-6′-yl}-propan-2-ol]
16 | c1cncc(-c2cc(NCCc3c[nH]c4ccccc34)nc(-c3ccco3)c2)c1 [Example 1.1, (6′-Furan-2-yl-[3,4′]bipyridinyl-2′-yl)-[2-(1H-indol-3-yl)-ethyl]-amine]
38 | Cc1ccc(-c2cc(-c3cncc(-c4ccc(CN5CCN(C(C)C)CC5)cc4)c3)cc(NC3CC3)n2)o1 [Example 2.125, Cyclopropyl-[5-[4-(4-isopropyl-piperazin-1-ylmethyl)-phenyl]-6′-(5-methyl-furan-2-yl)-[3,4′]bipyridinyl-2′-yl]-amine]
214 | Oc1cccc(CNc2cc(-c3cncc(Br)c3)cc(-c3ccccn3)n2)c1 [Example 1.23, 3-[(5″-Bromo-[2,2′;4′,3″]terpyridin-6′-ylamino)-methyl]-phenol]
22 | CC(C)Nc1cc(-c2cncc(-c3ccc(CN4CCN(C(C)(C)C)CC4)cc3)c2)cc(-c2ccccn2)n1 [Example 2.134, {5″-[4-(4-tert-Butyl-piperazin-1-ylmethyl)-phenyl]-[2,2′;4′,3″]terpyridin-6′-yl}-isopropyl-amine]
154 | CCNc1cc(-c2cncc(-c3cccc(CN4CCN(C(C)(C)C)CC4)c3)c2)cc(-c2ccccn2)n1 [Example 2.111, {5″-[3-(4-tert-Butyl-piperazin-1-ylmethyl)-phenyl]-[2,2′;4′,3″]terpyridin-6′-yl}-ethyl-amine]
190 | c1ccc(-c2cc(-c3cccnc3)cc(NCc3cccc4[nH]ccc34)n2)nc1 [Example 1.15, (1H-Indol-4-ylmethyl)-[2,2′;4′,3″]terpyridin-6′-yl-amine]
64 | CC(C)(C)N1CCN(Cc2cccc(-c3cncc(-c4cc(NC5CC5)nc(-c5ccccn5)c4)c3)c2)CC1 [Example 2.119, {5″-[3-(4-tert-Butyl-piperazin-1-ylmethyl)-phenyl]-[2,2′;4′,3″]terpyridin-6′-yl}-cyclopropyl-amine]
209 | CC(C)N1CCN(Cc2ccc(-c3cncc(-c4cc(-c5ccccn5)nc(C(C)(C)C)c4)c3)cc2)CC1 [Example 2.95, 6′-tert-Butyl-5″-[4-(4-isopropyl-piperazin-1-ylmethyl)-phenyl]-[2,2′;4′,3″]terpyridine]
357 | CC(C)Nc1cc(-c2cncc(-c3cccc(CN4CCN(C(C)(C)C)CC4)c3)c2)cc(-c2ccccn2)n1 [Example 2.133, {5″-[3-(4-tert-Butyl-piperazin-1-ylmethyl)-phenyl]-[2,2′;4′,3″]terpyridin-6′-yl}-isopropyl-amine]
22 | CC(C)(C)N1CCN(Cc2ccc(-c3cncc(-c4cc(NC5CC5)nc(-c5ccccn5)c4)c3)cc2)CC1 [Example 2.120, {5″-[4-(4-tert-Butyl-piperazin-1-ylmethyl)-phenyl]-[2,2′;4′,3″]terpyridin-6′-yl}-cyclopropyl-amine]
92 | Cn1cc(-c2cncc(-c3cc(-c4ccccn4)nc(C(C)(C)O)c3)c2)cn1 [Example 2.86, 2-[5″-(1-Methyl-1H-pyrazol-4-yl)-[2,2′;4′,3″]terpyridin-6′-yl]-propan-2-ol]
13 | [2H]C([2H])([2H])Nc1cc(-c2cncc(-c3ccc(CN4CCN(C(C)(C)C)CC4)cc3)c2)cc(-c2ccccn2)n1 [Example 2.107, {5″-[4-(4-tert-Butyl-piperazin-1-ylmethyl)-phenyl]-[2,2′;4′,3″]terpyridin-6′-yl}-methyl-d3-amine]
35 | CC(C)(C)N1CCN(Cc2ccc(-c3cncc(-c4cc(N)nc(-c5ccccn5)c4)c3)cc2)CC1 [Example 2.158, 5″-[4-(4-tert-Butyl-piperazin-1-ylmethyl)-phenyl]-[2,2′;4′,3″]terpyridin-6′-ylamine]
